{"source": "patent US6399649B1", "about": "“Compositions and methods for the treatment of chronic lymphocytic leukemia” (Boston Medical Center Corporation, priority 1998, dated 2002)", "key": {"CLL cells [1]": {"test_system": "CLL cells", "details": "cited from earlier work"}, "CLL cells [2]": {"test_system": "CLL cells", "experiment": "cAMP assay (RIA) in CLL cells", "type": "cell-based, human", "details": "30 uMol/L with forskolin; two hours", "procedure": "One million cells in 1 mL were treated for two hours with or without drugs. 0.8 mL of cells were pelleted by spinning at 4,000 rpm (RCF=1,310) in microcentrifuge tube. After discarding 0.7 mL, 400 uL of ethanol was added, vortexed and left on ice for five minutes. Particulate cell debris was removed by centrifugation at 14,000 rpm (RCF=16,000). The supernatant was stored at −20° C. until the day of assay, at which time it was dried in a Speedivac (Savant, Farmingdale, N.Y.) to a volume of 50 uL. After ten-fold dilution in 10 mMol/L Tris pH 8.0, 1 mMol/L EDTA, the cAMP sample was analyzed for cAMP concentration using a cAMP RIA kit (NEN, Boston, Mass.) according to the manufacturer's instructions using the nonacetylated protocol.\nIn this example, it was determined what role type 1 and type 4 PDE activity might play in the catabolism of cyclic nucleotides in CLL cells. cAMP levels were measured after culturing leukemic cells with varying concentrations of PDE-isoform specific inhibitors, either alone or in conjunction with an activator of adenylate cyclase, the diterpene forskolin. Specifically, one million freshly isolated cells were incubated with the indicated drugs for two hours prior to analysis of cAMP in cell lysates using a radioimmunoassay. The results are shown in FIG. 4 and the data are the mean of three individually assayed culture wells."}, "Bal-17 cells": {"test_system": "Bal-17 cells", "experiment": "cAMP assay (RIA) in Bal-17 cells", "type": "cell-based, murine", "details": "basal and forskolin-stimulated (data not shown)"}, "CLL cells [3]": {"test_system": "CLL cells", "experiment": "Hoechst 33342 apoptosis assay, CLL cells", "type": "cell-based, human", "details": "for percentage of apoptotic cells: three days", "procedure": "(§1) Hoechst 33342 was dissolved in water and frozen at 33 mg/mL at −20° C. One million cells/well were incubated in duplicate or triplicate in 48 well tissue culture plates (Costar, Cambridge, Mass.) with or without drug treatment for […] in 1 mL of culture media. Cells were transferred to 12×75 mm polystyrene Falcon® 2054 FACS tubes (Becton Dickinson Labware, Lincoln Park, N.J.) and incubated for ten minutes at 37° C. with Hoechst 33342 at a final concentration of […]. 23 Cells were stored on ice until analysis on a FACS Vantage flow cytometer (Becton Dickinson, San Jose, Calif.). Hoechst 33342 dye fluorescence was excited with a UV laser and detected using a 450 bandpass filter; Data was analyzed using Cellquest software (Becton Dickinson, San Jose, Calif.).\nAs a more quantitative analysis of CLL apoptosis, we utilized a flow cytometry method in which apoptotic cells are distinguished both by their reduced size (FSC) and their increased uptake of the lipophilic UV fluorescent dye Hoechst 33342 (FL-4) when the intact, heterogeneous cell population is incubated with a low concentration of the dye (0.25 ug/mL) for 10 minutes at 37° C. Specifically, cells were cultured for 72 hours in media (1), 1uMol/L rolipram (2), 40 uMol/L forskolin (3) or a combination of the two drugs (FIG. 6). The abcissa reflects forward light scatter and the ordinate Hoechst 33342 fluorescence. Apoptotic cells are characterized by reduced forward light scatter and increased Hoechst 33342 fluorescence. Previous reports of cAMP induced lymphoid apoptosis have noted that this form of programmed cell death may take 48 to 72 hours to develop maximally. […] CLL cells were cultured for 72 hours in one mL of media with the indicated concentration of rolipram with (black bars) or without (stippled bars) the addition of 40 uMol/L forskolin."}, "PDE1 enzymes": {"target": "PDE1 enzymes", "details": "cited from earlier work"}, "[4]": {"test_system": "IL-2 cultured WMC (>90% CD3+ T cells)", "experiment": "Hoechst 33342 apoptosis assay, IL-2 cultured WMC", "type": "cell-based, human", "details": "72 hours, comparable treatments"}, "[5]": {"test_system": "magnetic bead purified CD19+B cells", "experiment": "Hoechst 33342 apoptosis assay, CD19+ B cells", "type": "cell-based, human", "details": "72 hours", "procedure": "as §1\nThis example describes the effect of PDE4 inhibition on normal B and T cells. […] Specifically, one million WMC were cultured with the indicated concentration of rolipram with or without the addition of 40 uMol/L forskolin for 72 hours in the presence of 2 units/mL IL-2. Apoptosis was determined by Hoechst 33342 flow cytometry. […] In contrast, magnetic bead purified CD19+B cells were sensitive to rolipram, although the increment in apoptosis observed was superimposed on a high basal apoptosis rate that has previously been reported in cultured human B cells. Given that crosslinking of cell surface immunoglobulin on resting B cells has been reported to reduce basal and forskolin-induced apoptosis in culture, we also stimulated CD19+ cells with a polyclonal Fab′2 anti-IgM/IgG reagent 30 minutes prior to the addition of the phosphodiesterase inhibitor."}, "[6]": {"details": "Pt. 3, Rai IV, Drug Res. Ch, CH, basal 38, 10 uMol/L rolipram, 40 uMol/L forskolin or 100 uMol/L dbcAMP"}, "[7]": {"details": "Pt. 6, Rai IV, Drug Res. Ch, basal 17 ± 4, 10 uMol/L rolipram, 40 uMol/L forskolin or 100 uMol/L dbcAMP"}, "[8]": {"details": "Pt. 7, Rai II, Drug Res. Ch, basal 13 ± 2, 10 uMol/L rolipram, 40 uMol/L forskolin or 100 uMol/L dbcAMP"}, "[9]": {"details": "Pt. 9, Rai IV, Drug Res. Ch, Cy, Fl, basal 4 ± 0, 10 uMol/L rolipram, 40 uMol/L forskolin or 100 uMol/L dbcAMP"}, "[10]": {"details": "Pt. 11, Rai 0, basal 24 ± 4, 10 uMol/L rolipram, 40 uMol/L forskolin or 100 uMol/L dbcAMP"}, "[11]": {"details": "Pt. 14 (significant population of cells with prolymphocyte morphology), Rai I, basal 13 ± 0, 10 uMol/L rolipram, 40 uMol/L forskolin or 100 uMol/L dbcAMP"}}, "data": [{"smiles": "Cn1c(=O)c2[nH]cnc2n(C)c1=O", "note": "[Theophylline]", "values": [{"measurement": "apoptosis in CLL cells", "setting": "CLL cells [1]", "result": "induces apoptosis"}]}, {"smiles": "CCOC(=O)C1=C[C@]2(CC)CCCN3CCc4c(n1c1ccccc41)[C@@H]32", "note": "[vinpocetine]", "values": [{"measurement": "CLL cell cAMP", "setting": "CLL cells [2]", "result": "not augmented above levels induced by forskolin alone"}, {"measurement": "cAMP levels in Bal-17 cells", "setting": "Bal-17 cells", "result": "reduced both basal and forskolin-stimulated cAMP levels"}, {"measurement": "CLL cell apoptosis", "setting": "CLL cells [3]; 10 or 30 uMol/L", "result": "underwent apoptosis"}, {"measurement": "time of peak apoptosis", "setting": "CLL cells [3]; CLL cells (data not shown)", "result": "≤ 24", "unit": "h"}, {"measurement": "IC50", "setting": "PDE1 enzymes", "result": 21, "unit": "µM"}]}, {"smiles": "C=C[C@@]1(C)CC(=O)[C@]2(O)[C@@]3(C)[C@@H](O)CCC(C)(C)[C@@H]3[C@H](O)[C@H](OC(C)=O)[C@@]2(C)O1", "note": "[forskolin]", "values": [{"measurement": "percentage of apoptotic cells", "setting": "CLL cells [3]; Pt. 2, Rai IV, Drug Res. Ch, Cy, basal 18 ± 2, 10 uMol/L rolipram, 40 uMol/L forskolin or 100 uMol/L dbcAMP", "result": 46, "unit": "%"}, {"measurement": "percentage of apoptotic cells", "setting": "CLL cells [3]; [6]", "result": "59 ± 0", "unit": "%"}, {"measurement": "percentage of apoptotic cells", "setting": "CLL cells [3]; [7]", "result": "30 ± 4", "unit": "%"}, {"measurement": "percentage of apoptotic cells", "setting": "CLL cells [3]; [8]", "result": "32 ± 0", "unit": "%"}, {"measurement": "percentage of apoptotic cells", "setting": "CLL cells [3]; Pt. 8, Rai 0, basal 5, 10 uMol/L rolipram, 40 uMol/L forskolin", "result": 22, "unit": "%"}, {"measurement": "percentage of apoptotic cells", "setting": "CLL cells [3]; [9]", "result": "17 ± 4", "unit": "%"}, {"measurement": "percentage of apoptotic cells", "setting": "CLL cells [3]; Pt. 10, Rai I, basal 11, 10 uMol/L rolipram, 40 uMol/L forskolin or 100 uMol/L dbcAMP", "result": "26 ± 4", "unit": "%"}, {"measurement": "percentage of apoptotic cells", "setting": "CLL cells [3]; [10]", "result": "40 ± 3", "unit": "%"}, {"measurement": "percentage of apoptotic cells", "setting": "CLL cells [3]; Pt. 12, Rai IV, Drug Res. Ch, Fl, 2C, basal 0 ± 4, 10 uMol/L rolipram, 40 uMol/L forskolin or 100 uMol/L dbcAMP", "result": "43 ± 1", "unit": "%"}, {"measurement": "percentage of apoptotic cells", "setting": "CLL cells [3]; [11]", "result": "19 ± 3", "unit": "%"}]}, {"smiles": "CCCC(=O)Nc1ncnc2c1ncn2[C@@H]1O[C@@H]2COP(=O)(O)O[C@H]2[C@H]1OC(=O)CCC", "note": "[dbcAMP, dibutyryl cAMP]", "values": [{"measurement": "percentage of apoptotic cells relative to control cells", "setting": "CLL cells [3]; CLL cells, 72 hours, 10 uMol/L rolipram, 40 uMol/L forskolin, dbcAMP greater than or equal to 30 mMol/L", "result": "increased significantly"}, {"measurement": "percentage of apoptotic cells", "setting": "CLL cells [3]; [6]", "result": "71 ± 3", "unit": "%"}, {"measurement": "percentage of apoptotic cells", "setting": "CLL cells [3]; [7]", "result": "39 ± 4", "unit": "%"}, {"measurement": "percentage of apoptotic cells", "setting": "CLL cells [3]; [8]", "result": "32 ± 4", "unit": "%"}, {"measurement": "percentage of apoptotic cells", "setting": "CLL cells [3]; [9]", "result": "46 ± 1", "unit": "%"}, {"measurement": "percentage of apoptotic cells", "setting": "CLL cells [3]; [10]", "result": "39 ± 2", "unit": "%"}, {"measurement": "percentage of apoptotic cells", "setting": "CLL cells [3]; Pt. 13, Rai 0, basal 2 ± 0, 10 uMol/L rolipram, 40 uMol/L forskolin or 100 uMol/L dbcAMP", "result": "23 ± 6", "unit": "%"}, {"measurement": "percentage of apoptotic cells", "setting": "CLL cells [3]; [11]", "result": "22 ± 0", "unit": "%"}, {"measurement": "percentage of apoptotic cells relative to control cells", "setting": "[4]", "result": "did not significantly increase"}, {"measurement": "percentage of apoptotic cells relative to control cells", "setting": "[5]; anti-Ig stimulated B cells, comparable treatments", "result": "did not significantly increase"}, {"measurement": "percentage of apoptotic cells relative to control cells", "setting": "[5]; resting B cells, 10 uMol/L rolipram, 40 uMol/L forskolin, dbcAMP greater than or equal to 30 mMol/L", "result": "increased significantly"}]}]}
